In PubChem BioAssay AID1159562 (GlaxoSmithKline (GSK), 2015):
Active and inactive are the calls of the source. The rule behind the calls is not given here.

Tested on: Trypanosoma brucei growth inhibition, luminescence
Test: Trypanosoma brucei growth inhibition, luminescence (AID 1159562);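 note: parasites grew with compound for 24 h before the luminescence read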

SMILES	IC50
COc1ccc(C(=O)[C@H]2C[C@@H]2CN(Cc2ccccn2)Cc2ccccn2)cc1	16 µM
COc1cccc(S(=O)(=O)Nc2ccc3c(c2)CC(N2CCC(NC(=O)C4CC4)CC2)C3)c1 (stereo unspecified)	0.79 µM
CNc1cc(C)nc(C2CN(C(=O)c3n[nH]c4ccccc34)CCO2)c1 (stereo unspecified)	> 40 µM (inactive)
COc1ccc(-c2ccc3nnc(-c4ccc(O)c(OC)c4)n3c2)cn1	2.5 µM
Cn1nc([N+](=O)[O-])nc1N1CCCCC1	> 40 µM (inactive)
COc1cc(OC)cc(C(NS(=O)(=O)c2ccc(Cl)c(C(F)(F)F)c2)c2nccn2C)c1 (stereo unspecified)	7.9 µM
CCCCN(C(=O)c1ccc(NC(=O)C(C)C)cc1)c1ccccc1	> 40 µM (inactive)
O=C(NCCc1cccnc1)c1csc(-c2ccccc2)n1	> 40 µM (inactive)
CCS(=O)(=O)Nc1ccc(C2=NN(C(=O)c3cccs3)C(c3ccccc3OC)C2)cc1 (stereo unspecified)	16 µM
O=C(CN(Cc1ccccn1)Cc1ccccn1)NC1Cc2ccccc2C1	13 µM
O=C(Nc1ccc(C(F)(F)F)cc1)Nc1cccc([N+](=O)[O-])c1	2 µM
CCCN(Cc1ccc(OC)c(OC)c1)Cc1cc(=O)c2c(C)cc(C)cc2[nH]1	> 40 µM (inactive)
CC(=O)NC1(c2ccccc2)CCN(CC(=O)Nc2ccccc2-c2ccccc2)CC1	0.5 µM
Cc1[nH]n2c(=O)c3c(nc2c1-c1ccc(Br)cc1)CCCC3	0.79 µM
COc1ccc(Nc2nc(-c3ccccn3)cs2)c(OC)c1	25 µM
Cn1nc(-c2ccc(NC(=O)Cc3ccccc3Cl)cc2)c2c(N)ncnc21	0.25 µM
O=C(Cn1cnc([N+](=O)[O-])n1)Nc1ccc(Cl)cc1C(=O)c1ccccc1	32 µM
CCOc1ccc(N(C)S(=O)(=O)c2ccc3[nH]cc(C(=O)NC4CCCC4)c(=O)c3c2)cc1	0.5 µM
COc1ccc(C(C)(C)C)cc1S(=O)(=O)n1ccnc1	> 40 µM (inactive)
Cc1ccnc(NS(=O)(=O)c2ccc(NC(=O)c3ccc([N+](=O)[O-])s3)cc2)n1	0.4 µM
O=C(COc1ncnc2cc([N+](=O)[O-])ccc12)NC(=O)NC1CCCCC1	> 40 µM (inactive)
Cn1ccnc1CN1CCc2[nH]cnc2C1c1ccccc1OCc1ccccc1 (stereo unspecified)	0.5 µM

SMILES	IC50
O=C(NCC1CCCCC1)c1cnns1	1.3 µM
CCN(Cc1ccncc1)Cc1ccc(NC(=O)c2cc(-c3ccc(F)cc3)n[nH]2)cc1	> 40 µM (inactive)
Cc1ccc(Nc2nc(C3CCCN3Cc3ccn[nH]3)cs2)nc1 (stereo unspecified)	4 µM
O=C(N[C@H](CO)c1ccccc1)c1ccc(-c2c[nH]c3nccc(C(F)(F)F)c23)s1	0.4 µM
C=CCOCC1Cn2nc([N+](=O)[O-])nc2O1 (stereo unspecified)	> 40 µM (inactive)
O=C(Nc1nc2cc(Cl)ccc2o1)c1cccc(Cl)c1	0.79 µM
Cc1cc(Nc2cc(C3CC3)[nH]n2)nc(N2CCC[C@H]2C(N)=O)n1	0.063 µM
Nc1nonc1-c1nc2cncc(C(=O)N3CC[C@H](N)C3)c2n1CC1CC1	0.79 µM
Cc1cc(NC(=O)c2ccc([N+](=O)[O-])s2)ccc1Br	5 µM
CC(=O)Nc1ccc(Nc2nccc(-c3cnn4ncccc34)n2)cc1C(F)(F)F	0.05 µM
CC(C)c1sc(Cl)nc1C(=O)NCCc1nc(C(=O)Nc2ccc3c(c2)OCO3)cs1	25 µM
c1cc(-c2ncc(-c3ccn[nH]3)s2)ccn1	> 40 µM (inactive)
CC(C(=O)Nc1ccccc1F)N(C)CC(=O)Nc1cccc2ccccc12 (stereo unspecified)	> 40 µM (inactive)
O=C(Nc1ccccc1)Nc1nc(-c2ccccn2)cs1	1 µM
Cc1nc(N2CCC(C(=O)N3CCC(O)(c4cccnc4)CC3)CC2)nc2ccc(C(C)C)cc12	32 µM
O=c1ccc2ccc(F)c3c2n1C[C@H]3CN1CCN(CC(O)c2cc3c(cn2)OCS3)CC1 (stereo partly specified)	0.4 µM
COc1cccc(-c2c(C)nn(-c3nc(N)nc(-c4ccccn4)n3)c2N)c1	> 40 µM (inactive)
CN(C)c1ccc(N)cc1CN(CC1CCCO1)S(C)(=O)=O (stereo unspecified)	> 40 µM (inactive)
CNS(=O)(=O)c1ccccc1Nc1nc(Nc2cc(C)nn2C)ncc1Cl	0.1 µM
O=C(N1CCc2ccccc2CC1)C1(C(=O)N2CCC(n3c(=O)[nH]c4ncccc43)CC2)CC1	> 40 µM (inactive)
O=c1oc2ccccc2n1C1CCN(Cc2ccccc2-c2cccnc2)CC1	> 40 µM (inactive)
CCCNC(=O)Nc1cccc(-c2nc3ncccc3o2)c1	1 µM

SMILES	IC50
COc1ccc(OC)c2c(=O)c(Cc3ccccc3)c(C)[nH]c12	> 40 µM (inactive)
CC1CN(S(=O)(=O)c2ccc(NC(=O)c3cc(C4CC4)nc4c3cnn4C(C)C)cc2)CC(C)O1 (stereo unspecified)	6.3 µM
O=c1[nH]ccc2ccc(-c3ccncc3)cc12	> 40 µM (inactive)
COc1ccc(C(=O)Nc2cc(C(F)(F)F)ccc2N2CCOCC2)c(OC)c1	25 µM
CNc1cncc(C2CCCN2C(=O)Cc2coc3cc(C)ccc23)n1 (stereo unspecified)	> 40 µM (inactive)
C=CCn1nc([N+](=O)[O-])nc1Oc1ccc(Cl)cc1Cl	> 40 µM (inactive)
CN(C)S(=O)(=O)c1ccc(-c2cnc(N)c(-c3nc4ccc(F)cc4[nH]3)c2)cc1	1 µM
CN(C(=O)Nc1ccc2c(c1)CCN(C1CCC1)CC2)c1ccc(C#N)cc1	0.63 µM
Nc1ncnc2c1ncn2[C@@H]1O[C@H](CO)C[C@H]1O	0.01 µM
CCCC(=O)N(Cc1ccccn1)c1nc2ccccc2s1	> 40 µM (inactive)
CCC1Oc2cc(S(=O)(=O)N(C)CC(=O)N3CCc4ccccc4C3)c(C)cc2NC1=O (stereo unspecified)	32 µM
O=C(Nc1nc(-c2ccccn2)cs1)C1CCc2ccccc2C1 (stereo unspecified)	3.2 µM
COc1ccc([N+](=O)[O-])cc1NC(=O)Nc1cccc(Cl)c1	20 µM
COc1ccc(-c2cc(C)no2)cc1S(=O)(=O)Nc1ccc(F)c(Cl)c1	25 µM
COCc1cnc2c(c1SCc1c(F)cccc1Cl)c(=O)n(C)c(=O)n2C	> 40 µM (inactive)
COc1ccc(C(C)N(C)c2ncc3c(N)nc(N)nc3n2)cc1F (stereo unspecified)	5 µM
Cc1cc2cc(CNc3ccc4c(c3)OCO4)c(=O)n(CCO)c2cc1C	> 40 µM (inactive)
O=c1[nH]c(C=Cc2cccc(OCCOc3ccccc3)c2)nc(O)c1[N+](=O)[O-]	10 µM
CN1CCN(c2nc(-c3ccc(Cl)cc3)c3c(N)n(C)nc3n2)CC1	32 µM
CC(C)(C)CC(=O)NCCc1csc(-c2ccc(F)cc2)n1	0.5 µM
O=C(c1cc2cc(Cl)ccc2[nH]1)N1CCCCC1c1cccnc1 (stereo unspecified)	16 µM
COc1ccc(CNc2nsc3ccccc23)cc1OC	6.3 µM

SMILES	IC50
O=S(=O)(c1ccccc1C(F)(F)F)N1CCN(Cc2ccc(-n3ccnc3)cc2)CC1	> 40 µM (inactive)
Cc1ccccc1CNC(=O)CN(Cc1ccccn1)Cc1ccccn1	20 µM
COc1cccc(-c2cc(C(F)(F)F)nc(-n3ccc([N+](=O)[O-])n3)n2)c1	> 40 µM (inactive)
Cc1sc(C)c(C(F)(F)F)c1CNCCCNc1cc(=O)c2ccccc2[nH]1	0.013 µM
Nc1nccc(-c2csc(Nc3ccc(Cl)cc3)n2)n1	> 40 µM (inactive)
Cc1ccc2nc(N(Cc3cccnc3)C(=O)CCc3ccccc3)sc2c1	20 µM
OC[C@@H](Nc1nccc(-c2c(-c3ccc(F)cc3)ncn2C2CCNCC2)n1)c1ccccc1	0.63 µM
Cc1[nH]n2c(=O)c3c(nc2c1-c1ccc(Cl)cc1)CCCC3	0.32 µM
O=c1[nH]c(NCCCNCc2cc(Br)cc(Br)c2)nc2ccsc12	0.1 µM
COc1cccc(Nc2cc(C)nc(-c3ccccn3)n2)c1	> 40 µM (inactive)
COc1cc(-c2noc(CC#N)n2)ccc1OC(F)F	0.63 µM
c1ccc(CNc2cccc3ccncc23)cc1	> 40 µM (inactive)
COc1ccc(C2CC(c3ccccc3Cl)=NN2C(=O)CNC(=O)C2CCC2)cc1 (stereo unspecified)	0.5 µM
CC(C(=O)Nc1ccc(Br)cc1)N1CCN(c2ccc([N+](=O)[O-])cc2)CC1 (stereo unspecified)	> 40 µM (inactive)
Cc1c(Nc2cc(C3CC3)[nH]n2)ccc(C#N)c1Cl	0.63 µM
COc1cccc(CN(C)Cc2nc(N)c3c(C)c(C)sc3n2)c1	4 µM
CC(C)n1c(-c2nonc2N)nc2cccc(OCCN3CCCC3)c21	0.79 µM
Cc1ccc2onc(Nc3ccnc(Nc4cccc(S(C)(=O)=O)c4)n3)c2c1	7.9 µM
Cc1cc(NC(=O)CC2CCCCC2)n(-c2nc3c(c(=O)[nH]2)CCC3)n1	0.16 µM
COc1ccc2c(Cl)c(C(=O)N3CCC3)sc2c1Cl	> 40 µM (inactive)
COc1ccc(Cl)cc1CC(=O)Nc1n[nH]c(-c2ccccn2)n1	> 40 µM (inactive)
Cc1cc2nc(CN(C)Cc3ncccc3C)[nH]c2cc1C	0.63 µM

SMILES	IC50
O=c1ccc2ccc(F)c3c2n1C[C@H]3CN1CCC(NCc2cc3ccccc3o2)CC1	2 µM
COc1ccc(NS(=O)(=O)c2cc(NC(=O)c3ccc([N+](=O)[O-])s3)ccc2OC)cc1	0.13 µM
CNc1nc(C)nc(N2CCc3cc(C(=O)NCc4ccc(-c5nccn5C)cc4Cl)ccc32)n1	20 µM
Cn1nccc1NC(=O)Cn1ccc(-c2ccncc2)n1	0.63 µM
N#Cc1ccc(S(=O)(=O)N2CCN(Cc3cccc(-c4ccncc4)c3)CC2)cc1	20 µM
CC(C)c1nn(-c2nc(N)nc(-c3ccccn3)n2)c(N)c1C1CCCCC1	7.9 µM
NCC(Cc1ccccc1)NC(=O)c1cnc(-c2c[nH]c3ncccc23)s1 (stereo unspecified)	1 µM
Cc1nn(-c2nc(N)nc(-c3ccccn3)n2)c(N)c1-c1ccccc1	6.3 µM
Nc1nc(-c2ccccn2)nc(N)c1Cc1c(F)cccc1Cl	2 µM
COc1ccc(C2C3CCCCC3(O)CCN2CC(=O)Nc2ccc(Cl)cc2Cl)cc1 (stereo unspecified)	25 µM
Cc1ccccc1NS(=O)(=O)c1ccc2[nH]cc(C(=O)NC3CCCC(C)C3C)c(=O)c2c1 (stereo unspecified)	0.63 µM
CCc1ccc2nc(NC(=O)c3cc(N4CCOCC4)ccn3)sc2c1	1 µM
O=C(NCCc1ccccn1)C(c1cn[nH]c1)N1CCN(c2ccc(Cl)c(Cl)c2)CC1 (stereo unspecified)	> 40 µM (inactive)
CCN(CC)S(=O)(=O)c1ccc(C(=O)Nc2cc(C)nn2-c2nc(C)c(C)c(=O)[nH]2)cc1	0.32 µM
N#CN1CC[C@@H](NC(=O)Nc2ccccc2Oc2ccccc2)C1	7.9 µM
CC(CCc1ccccc1)NC(=O)CN(Cc1ccccn1)Cc1ccccn1 (stereo unspecified)	5 µM
CN(Cc1ccc(F)cc1)c1ccc(OCC(=O)N2CCCCC2c2cccnc2)nn1 (stereo unspecified)	> 40 µM (inactive)
Clc1ccc(CN2CCN(C3=NCCN3)CC2)cc1Cl	> 40 µM (inactive)
